# Experimental data reported in patent US9433607B2, “Composition for prevention or treatment of cancer comprising N-methylenenaphtho[2,1-b]furan-2-carbohydrazide derivatives as an active ingredient” (KOREA RESEARCH INSTITUTE OF BIOSCIENCE AND BIOTECHNOLOGY, priority 2012, dated 2016).
# How the values were obtained:
# [1] = system: MCF7; test: Cytotoxicity MTT assay, MCF7; type: cell-based; settings: Homo sapiens, 96 h, 4 days
# Method: (§1) Particularly, K562, MCF7 (Bio-Evaluation Center, Korea Research Institute of Bioscience and Biotechnology, Korea), and the multi-drug resistant cell lines thereof, K562/ADR and MCF7/ADR (Bio-Evaluation Center, Korea Research Institute of Bioscience and Biotechnology, Korea) were cultured in microtiter plate (1-3×10^3 cells/well). Then, the cells were treated with ethyl(2-methyl-3{(E)-[(naphtho[2,1-b]furan-2-ylcarbonyl)hydrazono]methyl}-1H-indole-1-yl)acetate, doxorubicin, or taxol, followed by culture for 4 days. Cytotoxicity was investigated by MTT assay by the same manner as described in Example <1-2>. IC50 was calculated by long-dose response curve. The data presents the mean value obtained from the assay performed in triplicate (Table 3).
# [2] = system: K562/ADR; test: Cytotoxicity MTT assay, multi-drug resistant K562/ADR; type: cell-based; settings: for IC50: Homo sapiens, 96 h, K562/ADR, MTT, 4 days; for resistance factor (number in the bracket): ratio of IC50 of K562/ADR to IC50 of parent K562
# Method: as §1
# (§2) The resistance factor of the multi-drug resistant cell line indicates the ratio of IC50 of the multi-drug resistant cell line to IC50 of the parent cell line showing no resistance, which was presented as a number in the bracket.
# [3] = system: MCF7/ADR; test: Cytotoxicity MTT assay, multi-drug resistant MCF7/ADR; type: cell-based; settings: for IC50: Homo sapiens, NCI/ADR-RES, 96 h, MCF7/ADR, MTT, 4 days; for resistance factor (number in the bracket): ratio of IC50 of MCF7/ADR to IC50 of parent MCF7
# Method: as §1, §2
# [4] = system: K562; test: Cytotoxicity MTT assay, K562; type: cell-based; settings: Homo sapiens, 96 h, 4 days
# Method: as §1
# [5] = system: FVB/N mouse induced with skin tumor; test: DMBA/TPA induced skin tumor model; type: in vivo
# Method: In this invention, the male FVB/N mice (6-7 weeks, Jackson Laboratory, USA) were raised under the condition of 12 hr bright lighting/12 hr dim lighting at the temperature of 24±2° C. with the humidity of 50±10% with water and feed provided freely. The care and process of the test animal was reviewed and approved by Institutional Animal Care and Use Committee (IACUC), Korea Research Institute of Bioscience and Biotechnology (KRIBB). DMBA (7,12-dimethylbenz[α]anthracene), TPA (12-O-tetradecanoylphorbol-13-acetate) and cholchicine were purchased from Sigma-Aldrich, and the synthesized ethyl(2-methyl-3{(E)-[(naphtho[2,1-b]furan-2-ylcarbonyl)hydrazono]methyl}-1H-indole-1-yl)acetate was provided from Dr. Thimmegowda.
# Particularly, the dorsal skin of the said FVB/N mouse was shaved two days before the experiment. 100 μg of DMBA was added to 0.2 ml of acetone, which was treated to the mouse by single-local administration for 1 week to induce tumor. 5 fig of TPA was added to 0.2 ml of acetone, which was treated to the above mouse induced with tumor […] for 15 weeks to grow the tumor. 500 nM of ethyl(2-methyl-3{(E)-[(naphtho[2,1-b]furan-2-ylcarbonyl)hydrazono]methyl}-1H-indole-1-yl)acetate or cholchicine was dissolved in 0.2 ml of acetone, which was treated to the above mouse locally for 30 minutes each time for 15 weeks. Each group was composed of at least 10 mice and total 4 groups were prepared:
# Group 1: DMBA and acetone treated group (negative control)
# Group 2: DMBA and TPA treated group (positive control)
# Group 3: DMBA/TPA and cholchicine treated group (experimental group 1)
# Group 4: DMBA/TPA and ethyl(2-methyl-3{(E)-[(naphtho[2,1-b]furan-2-ylcarbonyl)hydrazono]methyl}-1H-indole-1-yl)acetate treated group (experimental group 2).
# In addition, skin tumor such as papilloma was checked every week during the whole period of experiment. The tumor in the size of at least 2 mm was judged as positive. 15 weeks later, the mice were sacrificed with CO2. The skin tumor was extracted for histopathological/biochemical analysis.
# The average number and the volume of tumor in each group were calculated.
# Each mouse group was treated with different materials by the same manner as described in Example <8-2>, followed by observation for 15 weeks, and then the number of mice having skin tumor was counted. Tumor development rate was presented as %.
# The mouse induced with skin tumor by the same manner as described in Example <8-2> was treated with DMBA, and then the induced tumors were observed and weighed for 15 weeks to produce the average weight of tumor.
# [6] = system: HeLa cell line; test: Anti-proliferative activity in HeLa cells (MTT assay); type: cell-based; settings: HeLa cell line; for IC50: Homo sapiens
# Method: Particularly, HeLa cell line (ATCC, USA) was treated with the compounds of Table 1 respectively, and then IC50 (the half maximal inhibitory concentration) was investigated (Table 1).
# HeLa cells were treated with 100 nM, 250 nM, 500 nM and 1 μM of ethyl(2-methyl-3{(E)-[(naphtho[2,1-b]furan-2-ylcarbonyl)hydrazono]methyl}-1H-indole-1-yl)acetate or DMSO for 4 days. Then, the cell growth was confirmed by MTT assay. All the obtained numbers were calculated by normalizing the value of Day 0. The data presents the mean value obtained from the assay performed in triplicate.
# Particularly, HeLa cells were distributed in a 96-well plate at the density of 2×10^3 cells/well. The cells were treated with DMSO or the compound of the present invention, to which MTT reagent was added at the concentration of 10 μl/well. 2 hours later, OD450 was measured, which became the value of Day 0. 4 days later, MTT reagent was added thereto again. 2 hours later, OD450 was measured. The data presents the mean value obtained from the assay performed in triplicate.
# [7] = system: HeLa cells; test: Immunofluorescence of intracellular microtubules and chromosomes; type: cell-based; settings: 17 hours, Taxol 100 μM, nocodazole 200 ng/ml, compound 5 μM
# Method: To investigate the effect of ethyl(2-methyl-3{(E)-[(naphtho[2,1-b]furan-2-ylcarbonyl)hydrazono]methyl}-1H-indole-1-yl)acetate on intracellular microtubules, HeLa cells were treated with DMSO, Taxol (100 μM), nocodazole (200 ng/ml), or ethyl(2-methyl-3{(E)-[(naphtho[2,1-b]furan-2-ylcarbonyl)hydrazono]methyl}-1H-indole-1-yl)acetate (5 μM) for 17 hours. After fixing the cells, the cells were immuno-stained with Alexa Fluor 488-conjugated anti-tubulin antibody and Hoechst 33342 to confirm α-tubulin and chromosomes.
smiles,measurement,setting,value
COc1cccc2c1C(=O)c1c(O)c3c(c(O)c1C2=O)C[C@@](O)(C(=O)CO)C[C@@H]3O[C@H]1C[C@H](N)[C@H](O)[C@H](C)O1 [Doxorubicin],IC50,[1],53 µM
same,IC50,[2],3800 µM
same,resistance factor (number in the bracket),[2],1153
same,IC50,[3],5230 µM
same,resistance factor (number in the bracket),[3],98
same,IC50,[4],3.3 µM
"COc1cc2c(c(OC)c1OC)-c1ccc(OC)c(=O)cc1[C@@H](NC(C)=O)CC2 [cholchicine, reference compound]",number of skin tumor,"[5]; 500 nM in 0.2 ml acetone, local, 15 weeks",significantly reduced
same,weight of tumor compared with positive control,[5]; 15 weeks,significantly lighter
same,average volume of skin tumor reduced compared with positive control,"[5]; 15 weeks, 500 nM local",31.5%
same,decrease of average number of skin tumor compared with positive control,"[5]; 15 weeks, 500 nM local",2.86 times
same,week to which tumor formation was postponed,"[5]; tumor of at least 2 mm, positive control from 8th week",9 week
"O=C(N/N=C/c1ccc([N+](=O)[O-])o1)c1cc2c(ccc3ccccc32)o1 [H, (E)-N′-((5-nitrofuran-2-yl)methylene)naphtho[2,1-b]furan-2-carbohydrazide]",IC50,[6],5.4 µM
Cc1c(/C=N/NC(=O)c2cc3c(ccc4ccccc43)o2)c2ccccc2n1C [A],decrease of anti-proliferative activity compared with STK899704,[6],two times decreased
same,IC50,[6],0.44 µM
"O=C(N/N=C/c1ccc(-c2ccc([N+](=O)[O-])cc2)o1)c1cc2c(ccc3ccccc32)o1 [Compound F, (E)-N′-((5-(4-nitrophenyl)furan-2-yl)methylene)naphtho[2,1-b]furan-2-carbohydrazide]",IC50,[6],2.88 µM
O=C(N/N=C/c1ccc(-c2ccc(Br)cc2)o1)c1cc2c(ccc3ccccc32)o1 [D],IC50,[6],2.24 µM
O=C(N/N=C/c1ccc(-c2cccc(Cl)c2Cl)o1)c1cc2c(ccc3ccccc32)o1 [E],IC50,[6],2.61 µM
"Cc1c(/C=N/NC(=O)c2cc3c(ccc4ccccc43)o2)c2ccccc2n1CC#N [C, (E)-N′-((1-(cyanomethyl)-2-methyl-1H-indol-3-yl)methylene)naphtho[2,1-b]furan-2-carbohydrazide]",IC50,[6],2.61 µM
CC(=O)O[C@H]1C(=O)[C@@]2(C)[C@H]([C@H](OC(=O)c3ccccc3)[C@]3(O)C[C@H](OC(=O)[C@H](O)[C@@H](NC(=O)c4ccccc4)c4ccccc4)C(C)=C1C3(C)C)[C@]1(OC(C)=O)CO[C@@H]1C[C@@H]2O [Taxol],IC50,[1],4.3 µM
same,IC50,[2],1820 µM
same,resistance factor (number in the bracket),[2],911
same,IC50,[3],1620 µM
same,resistance factor (number in the bracket),[3],377
same,IC50,[4],2 µM
same,effect on microtubules and chromosomes (immunostaining),[7],strengthened the polymerization of tubulin so that multi-polar spindle fibers with condensed chromosomes were produced
"Cc1ccc(-c2ccc(/C=N/NC(=O)c3cc4c(ccc5ccccc54)o3)o2)cc1[N+](=O)[O-] [G, (E)-N′-((5-(4-methyl-3-nitrophenyl)furan-2-yl)methylene)naphtho[2,1-b]furan-2-carbohydrazide]",IC50,[6],3.11 µM
"O=C(N/N=C/c1ccc(OCc2ccccc2)cc1)c1cc2c(ccc3ccccc32)o1 [I, (E)-N′-(4-(benzyloxy)benzylidene)naphtho[2,1-b]furan-2-carbohydrazide]",IC50,[6],3.67 µM
"COc1cccc(/C=N/NC(=O)c2cc3c(ccc4ccccc43)o2)c1O [J, (E)-N′-(2-hydroxy-3-methoxybenzylidene)naphtho[2,1-b]furan-2-carbohydrazide]",IC50,[6],3.97 µM
"COC(=O)Nc1nc2ccc(C(=O)c3cccs3)cc2[nH]1 [nocodazole, reference compound]",effect on microtubules and chromosomes (immunostaining),[7],chromosomes were not fully condensed and microtubules were destroyed
"C=CCn1c(C)c(/C=N/NC(=O)c2cc3c(ccc4ccccc43)o2)c2ccccc21 [B, (E)-N′-((1-allyl-2-methyl-1H-indol-3-yl)methylene)naphtho[2,1-b]furan-2-carbohydrazide]",IC50,[6],1.96 µM
